Drawing on ChEMBL document CHEMBL1133871, “4-Aminopiperidine ureas as potent selective agonists of the human beta(3)-adrenergic receptor” (Bioorg Med Chem Lett, 2001), this text covers inhibition, Intrinsic activity and EC50 for 19 molecules.

In assay [1] the target is T1, Beta-3 adrenergic receptor (Homo sapiens, UniProt P13945). The assay can be described thus: […] of cAMP accumulation level in CHO cells expressing human beta3-AR receptor at 10 uM concentration. The assay is classed as functional, cell-based.
Target sequence in this assay (P13945 whole entry, looked up): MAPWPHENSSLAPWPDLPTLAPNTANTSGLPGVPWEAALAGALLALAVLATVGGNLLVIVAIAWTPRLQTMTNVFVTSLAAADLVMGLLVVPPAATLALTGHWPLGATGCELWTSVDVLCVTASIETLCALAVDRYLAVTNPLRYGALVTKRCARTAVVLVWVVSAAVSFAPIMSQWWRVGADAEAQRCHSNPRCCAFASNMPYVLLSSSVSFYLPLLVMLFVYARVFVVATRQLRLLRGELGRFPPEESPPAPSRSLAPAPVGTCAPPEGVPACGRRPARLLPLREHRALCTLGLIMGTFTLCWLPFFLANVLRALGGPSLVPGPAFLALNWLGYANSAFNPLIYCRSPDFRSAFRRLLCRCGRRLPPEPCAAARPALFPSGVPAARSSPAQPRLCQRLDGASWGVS
The target of assay [2] is T2, Adrenergic receptor beta (Homo sapiens, UniProt P08588+P07550+P13945). Briefly: In vitro intrinsic activity is given as percentage of maximal stimulation relative to isoproterenol; Not active. It counts as functional.
The target of assay [3] is Beta-1 adrenergic receptor (Homo sapiens, UniProt P08588). Briefly: In vitro agonistic activity assessed by measurement of cAMP accumulation level in CHO cells expressing human beta1-AR receptor. It counts as functional, cell-based.
In assay [4] the target is T1, Beta-3 adrenergic receptor. Briefly: In vitro agonistic activity assessed by measurement of cAMP accumulation level in CHO cells expressing human beta3-AR receptor. The assay is classed as functional, cell-based.
Target sequence in this assay (P13945 whole entry): as the sequence (P13945 whole entry, looked up) above
Assay [5] concerns the target T1, Beta-3 adrenergic receptor. Briefly: In vitro agonistic activity assessed by measurement of cAMP accumulation level in CHO cells expressing human beta3-AR receptor; In active. It counts as functional, cell-based.
Target sequence in this assay (P13945 whole entry): as the sequence (P13945 whole entry, looked up) above
The target of assay [6] is T1, Beta-3 adrenergic receptor. The assay can be described thus: In vitro intrinsic activity is given as percentage of maximal stimulation relative to isoproterenol; In active. The assay is classed as functional.
Target sequence in this assay (P13945 whole entry): as the sequence (P13945 whole entry, looked up) above
The target of assay [7] is T2, Adrenergic receptor beta. The assay can be described thus: In vitro agonistic activity against cAMP accumulation level in CHO cells expressing human beta-AR receptor. It counts as functional, cell-based.

Each structure is given as a SMILES string. Calls of active or inactive are those of the source. The calls are words filed in the database; no cut-off is given here.

Beta-1 adrenergic receptor, sequence (P08588 whole entry): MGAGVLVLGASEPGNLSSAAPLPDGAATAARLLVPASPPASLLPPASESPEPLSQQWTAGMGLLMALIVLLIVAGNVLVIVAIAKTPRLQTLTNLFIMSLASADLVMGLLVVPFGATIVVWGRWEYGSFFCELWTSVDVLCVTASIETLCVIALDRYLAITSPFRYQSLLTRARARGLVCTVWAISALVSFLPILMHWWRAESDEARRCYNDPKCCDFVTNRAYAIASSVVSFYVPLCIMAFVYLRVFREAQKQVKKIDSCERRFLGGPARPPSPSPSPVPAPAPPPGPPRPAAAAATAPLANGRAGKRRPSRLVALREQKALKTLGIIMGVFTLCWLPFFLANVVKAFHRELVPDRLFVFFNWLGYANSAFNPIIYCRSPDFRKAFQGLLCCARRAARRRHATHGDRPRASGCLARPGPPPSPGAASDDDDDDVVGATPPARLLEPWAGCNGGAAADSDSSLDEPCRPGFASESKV

As for `CCCCCCCCNC(=O)N1CCC(Nc2ccc(CCNC[C@H](O)COc3ccc(F)cc3)cc2)CC1`, the inhibition in assay [1] is 37%.

Turning to `O=C(NCc1cc(F)ccc1F)N1CCC(Nc2ccc(CCNC[C@H](O)COc3ccc(O)cc3)cc2)CC1`, the Intrinsic activity result on Adrenergic receptor beta [2] is “inactive”. In assay [3], the EC50 is 522 nM.

As for `O=C(NCc1ccc(F)cc1)N1CCC(Nc2ccc(CCNC[C@H](O)COc3ccc(O)cc3)cc2)CC1`, the results for the EC50 in assay [4] and in assay [3] were 41 nM and 109 nM, respectively.

For `O=C(NCc1ccc(Cl)cc1Cl)N1CCC(Nc2ccc(CCNC[C@H](O)COc3ccc(O)cc3)cc2)CC1`, the Intrinsic activity result on Adrenergic receptor beta [2] was “inactive”. Further, the EC50 in assay [3] was 254 nM.

Consider `O=C(NCc1ccccc1F)N1CCC(Nc2ccc(CCNC[C@H](O)COc3ccc(O)cc3)cc2)CC1`, for which the Intrinsic activity entry at Adrenergic receptor beta [2] was “inactive”. This molecule showed an EC50 in assay [3] of 260 nM.

In the case of `CCCCCCCCNC(=O)N1CCC(Nc2ccc(CCNC[C@H](O)COc3cccc4[nH]c(O)nc34)cc2)CC1`, the EC50 result in assay [5] and in assay [6] was “Not Active” in each case.

As for `CS(=O)(=O)Nc1cc(OC[C@@H](O)CNCCc2ccc(NC3CCN(C(=O)NCc4cc(F)ccc4F)CC3)cc2)ccc1O`, a half-maximal response in assay [3] (EC50) required 423 nM.

`CCCCCCCCNC(=O)N1CCC(Nc2ccc(CCNC[C@H](O)COc3ccc(O)c4c3CCC(=O)N4)cc2)CC1`: in assay [3], the midpoint of the response, the EC50, lay at 88 nM. This EC50 is about 4.8-fold lower than that of the molecule before.

Turning to `O=C(NCc1ccc(F)cc1F)N1CCC(Nc2ccc(CCNC[C@H](O)COc3ccc(O)cc3)cc2)CC1`, the Intrinsic activity result on Adrenergic receptor beta [2] is “inactive”. The EC50 in assay [3] came out at 460 nM.

In assay [3], `NC(=O)N1CCC(Nc2ccc(CCNC[C@H](O)COc3ccc(O)cc3)cc2)CC1` registered a half-maximal effective concentration (EC50) of 511 nM.

Consider `CCCCCCCCNC(=O)N1CCC(Nc2ccc(CCNC[C@H](O)COc3ccc(O)cc3)cc2)CC1`, for which the values for the EC50 in assay [4] and in assay [3] were 8 nM and 610 nM, respectively.

For the molecule `O=C(NCc1c(F)cccc1F)N1CCC(Nc2ccc(CCNC[C@H](O)COc3ccc(O)cc3)cc2)CC1`, the Intrinsic activity entry at Adrenergic receptor beta [2] was “inactive”. The EC50 in assay [3] came out at 750 nM.

For the molecule `O=C(NCCCC1CCCC1)N1CCC(Nc2ccc(CCNC[C@H](O)COc3ccc(O)cc3)cc2)CC1`, a half-maximal effect in assay [3] (EC50) was put at 187 nM.

As for `CCN(CC)C(=O)N1CCC(Nc2ccc(CCNC[C@H](O)COc3ccc(O)cc3)cc2)CC1`, in assay [3], the EC50 turned out to be 164 nM. The EC50 values of the last two molecules are within 1.5-fold of each other.

In assay [3], `CC(C)NC(=O)N1CCC(Nc2ccc(CCNC[C@H](O)COc3ccc(O)cc3)cc2)CC1` came in with an EC50 of 943 nM. This EC50 lies about 5.8-fold higher than the previous one.

`CCCCCCCCNC(=O)N1CCC(Nc2ccc(CCNC[C@H](O)c3ccc(O)c(C(N)=O)c3)cc2)CC1`: the Intrinsic activity in assay [1] was determined as 42%.

For the molecule `CS(=O)(=O)Nc1cc([C@@H](O)CNCCc2ccc(NC3CCN(C(=O)NCc4cc(F)ccc4F)CC3)cc2)ccc1O`, the EC50 at Adrenergic receptor beta [7] was determined as 10 nM; in assay [3], 2640 nM.

As for `CNC(=O)N1CCC(Nc2ccc(CCNC[C@H](O)COc3ccc(O)cc3)cc2)CC1`, a half-maximal response in assay [3] (EC50) required 350 nM.

Molecule `O=C(NC1CCCCC1)N1CCC(Nc2ccc(CCNC[C@H](O)COc3ccc(O)cc3)cc2)CC1` had an EC50 in assay [3] of 85 nM.
